Measurements taken from patent US20100056516A1 (priority 2006, published 2010).
pIC50: −log10 of the molar value.

Key:
[1] = test system: HXB2 virus; experiment: microbe, parasite or virus in culture; assay type: cell-based, HIV; settings: Human immunodeficiency virus 1, HXB2, HeLaP4-2, read-out: antiviral IC50 (SCIA-B)
Method: An assay for measuring the inhibition of acute HIV infection with HeLa P4-2 cells in a single cycle infectivity assay (SCIA-A) was conducted in accordance with Joyce, J. G., et al., J. Biol. Chem., 2002, 277, 45811, Hazuda, D. J. et al., Science, 2000, 287, 646, and Kimpton, J. et al, J. Virol. 1992, 66, 2232. Infectious virus was produced by transfecting 293T cells with HIV proviral DNA in which the integrase gene was derived from a IIIB isolate and the remainder of the HIV genome was derived from the NL4-3 isolate.
This assay B for measuring the inhibition of acute HIV infection with HeLa P4-2 cells in a single cycle infectivity assay (SCIA-B) is essentially the same as Assay A described above, except that HXB2 virus is employed instead of the IIIb isolate.

[2] = biological target: HIV integrase (Human immunodeficiency virus type 1 group M subtype B, UniProt P04585); experiment: integrase strand transfer assay (STA); assay type: biochemical; settings: integrase strand transfer; read-out: IC50 in the STA assay

| SMILES | pIC50 [1] | pIC50 [2] |
| --- | --- | --- |
| Nc1ccc(Cc2ccc(-c3cc(=O)n(O)c4ncccc34)cc2)cc1 [Example 239, 4-[4-(4-aminobenzyl)phenyl]-1-hydroxy-1,8-naphthyridin-2(1H)-one] | > 4.00 | > 4.30 |
| Nc1cc(=O)n(O)c2ncccc12 [Example 99, 4-Amino-1-hydroxy-1,8-naphthyridin-2(1H)-one] | > 4.00 | > 4.30 |
| COc1ccc(-c2ccncc2)cc1-c1cc(=O)n(O)c2ncccc12 [Example 185, 1-hydroxy-4-(2-methoxy-5-pyridin-4-ylphenyl)-1,8-naphthyridin-2(1H)-one] | > 4.00 | > 4.30 |
| CCOC(=O)c1c(O)c2cc(-c3cccc(C#N)c3)cnc2n(O)c1=O [Example 60, Ethyl 6-(3-cyanophenyl)-1,4-dihydroxy-2-oxo-1,2-dihydro-1,8-naphthyridine-3-carboxylate] | < 4.00 | > 4.30 |
| O=c1cc(-c2cccc(-c3cccc(CNCc4ccccc4)c3)c2)c2cccnc2n1O [Example 205, 4-{3′-[(benzylamino)methyl]biphenyl-3-yl}-1-hydroxy-1,8-naphthyridin-2(H)-one] | > 4.00 | > 4.30 |
| CCOC(=O)c1c(N)c2cc(-c3ccccc3)cnc2n(O)c1=O [Example 98, Ethyl 4-amino-1-hydroxy-2-oxo-6-phenyl-1,2-dihydro-1,8-naphthyridine-3-carboxylate] | > 4.00 | > 4.30 |
| O=c1cc(-c2ccc3ncccc3c2)c2cccnc2n1O [Example 184, 1-hydroxy-4-quinolin-6-yl-1,8-naphthyridin-2(1H)-one] | > 4.00 | > 4.30 |
| O=c1cc(NCCc2ccccc2)c2cccnc2n1O [Example 132, 1-hydroxy-4-[(2-phenylethyl)amino]-1,8-naphthyridin-2(1H)-one] | > 4.00 | > 4.30 |
| CN1C(=O)c2c(c3cccnc3n(O)c2=O)NC1c1cccc(CN2CCOCC2)c1 (stereo not shown) [Example 219, 6-Hydroxy-3-methyl-2-[3-(morpholin-4-ylmethyl)phenyl]-2,3-dihydropyrimido[5,4-c]-1,8-naphthyridine-4,5(1H, 6H)dione] | > 4.00 | > 4.30 |
| O=C1N[C@H](c2ccccc2)[C@H](c2ccccc2)Nc2c1c(=O)n(O)c1ncccc21 [Example 170, (2S, 3R)-7-hydroxy-2,3-diphenyl-3,4-dihydro-1H-[1,4]diazepino[6,5-c]-1,8-naphthyridine-5,6(2H, 7H)-dione] | > 4.00 | > 4.30 |
| O=c1c(-c2ccccc2)c(O)c2cc(Br)cnc2n1O [Example 47, 6-Bromo-1,4-dihydroxy-3-phenyl-1,8-naphthyridin-2(1H)-one] | > 4.00 | > 4.30 |
| O=c1cc(-c2cccc(CO)c2)c2cccnc2n1O [Example 183, 1-hydroxy-4-[3-(hydroxymethyl)phenyl]-1,8-naphthyridin-2(1H)-one] | > 4.00 | > 4.30 |
| NCc1ccc(-c2cccc(-c3ccnc4c3c(O)cc(=O)n4O)c2)cc1 [Example 228, 5-[4′-(aminomethyl)biphenyl-3-yl]-1,4-dihydroxy-1,8-naphthyridin-2(1H)-one] | > 4.00 | > 4.30 |
| O=C(Nc1ccccc1)c1c(O)c2cccnc2n(O)c1=O [Example 20, 1,4-Dihydroxy-2-oxo-N-phenyl-1,2-dihydro-1,8-naphthyridine-3-carboxamide] | > 4.00 | > 4.30 |
| CCOC(=O)c1c(-c2cccc(-c3ccc(CN)cc3)c2)c2cc(-c3ccccc3OC)cnc2n(O)c1=O [Example 248, ethyl 4-[4′-(aminomethyl)biphenyl-3-yl]-1-hydroxy-6-(2-methoxyphenyl)-2-oxo-1,2-dihydro-1,8-naphthyridine-3-carboxylate] | > 4.00 | > 4.30 |
| CC1CCN(Cc2cccc(CNc3cc(=O)n(O)c4ncccc34)c2)CC1 [Example 165, 1-hydroxy-4-({3-[(4-methyl-1-piperidinyl)methyl]benzyl}amino)-1,8-naphthyridin-2 (1H-one)] | > 4.00 | > 4.30 |
| O=c1c(-c2ccccc2O)c(O)c2cccnc2n1O [Example 46, 1,4-dihydroxy-3-(2-hydroxyphenyl)-1,8-naphthyridin-2(1H)-one] | > 4.00 | > 4.30 |
| O=C(NCc1ccccc1)c1ccc2c(c1)CCN(c1cc(=O)n(O)c3ncccc13)C2 [Example 261, 4-[6-(benzylaminocarbonyl)-3,4-dihydroisoquinolin-2(1H)-yl]-1-hydroxy-1,8-naphthyridin-2(1H)-one] | > 4.00 | > 4.30 |
| CCOC(=O)c1c(N2CCc3ccc(-c4cccc(F)c4)cc3C2)c2cccnc2n(O)c1=O [Example 259, ethyl 4-[7-(3-fluorophenyl)-3,4-dihydroisoquinolin-2(1H)-yl]-1-hydroxy-2-oxo-1,2-dihydro-1,8-naphthyridine-3-carboxylate] | > 4.00 | < 4.30 |

| SMILES | pIC50 [1] | pIC50 [2] |
| --- | --- | --- |
| O=C(Nc1cc(=O)n(O)c2ncccc12)c1ccccc1 [Example 102, N-(1-Hydroxy-2-oxo-1,2-dihydro-1,8-naphthyridin-4-yl)benzamide] | > 4.00 | > 4.30 |
| NCc1cccc(-c2cccc(-c3cc(=O)n(O)c4ncccc34)c2)c1 [Example 204, 4-[3′-(aminomethyl)biphenyl-3-yl]-1-hydroxy-1,8-naphthyridin-2(1H)-one] | > 4.00 | > 4.30 |
| O=c1c(Br)c(O)c2cc(-c3ccncc3)cnc2n1O [Example 72, 3-Bromo-1,4-dihydroxy-6-pyridin-4-yl-1,8-naphthyridin-2(1H)-one] | > 4.00 | > 4.30 |
| O=c1cc(Nc2cccc(-c3ccccc3)c2)c2cccnc2n1O [Example 105, 4-(Biphenyl-3-ylamino)-1-hydroxy-1,8-naphthyridin-2(1H)-one] | > 4.00 | > 4.30 |
| CCOC(=O)c1c(-c2ccc(CCc3ccc(N)cc3)cc2)c2cccnc2n(O)c1=O [Example 264, ethyl 4-{4-[2-(4-aminophenyl)ethyl]phenyl}1-hydroxy-2-oxo-1,2,-dihydro-1,8-naphthyridin-3-carboxylate] | > 4.00 | > 4.30 |
| NCc1cccc(CNC(=O)Cc2c(O)c3cccnc3n(O)c2=O)c1 [Example 224] | > 4.00 | > 4.30 |
| COc1cccc(NC(=O)c2c(O)c3cccnc3n(O)c2=O)c1 [Example 12, 1,4-Dihydroxy-N-(3-methoxyphenyl)-2-oxo-1,2-dihydro-1,8-naphthyridine-3-carboxamide] | > 4.00 | > 4.30 |
| CC(c1ccccc1)N1CCN(Cc2cccc(-c3cc(=O)n(O)c4ncccc34)c2)CC1 (stereo not shown) [Example 210, 1-hydroxy-4-(3-{[4-(1-phenylethyl)-1-piperazinyl]methyl}phenyl)-1,8-naphthyridin-2(1H-one)] | > 4.00 | > 4.30 |
| O=c1cc(NCc2cccc(CN3CCCCC3)c2)c2cccnc2n1O [Example 153] | > 4.00 | > 4.30 |
| CNC(=O)c1c(N)c2cccnc2n(O)c1=O [Example 221, 4-Amino-1-hydroxy-N-methyl-2-oxo-1,2-dihydro-1,8-naphthyridine-3-carboxamide] | > 4.00 | > 4.30 |
| O=c1cc(N2CCc3ccccc3C2)c2cccnc2n1O [Example 119, 4-(3,4-dihydroisoquinolin-2(1H)-yl)-1-hydroxy-1,8-naphthyridin-2(1H)-one] | > 4.00 | > 4.30 |
| O=c1cc(NCc2cnc(-c3ccccc3)[nH]2)c2cccnc2n1O [Example 167, 1-hydroxy-4-{[(2-phenyl-1-imidazole-5-yl)methyl]amino}-1,8-naphthyridin-2 (1H-one)] | > 4.00 | > 4.30 |
| O=c1cc(NC2CCN(Cc3ccccc3)C2)c2cccnc2n1O (stereo not shown) [Example 112, 4-[(1-Benzylpyrrolidin-3-yl)amino]-1-hydroxy-1,8-naphthyridin-2(1H)-one] | > 4.00 | > 4.30 |
| NCc1cccc(-c2cnc3c(c2)c(O)c(-c2ccccc2)c(=O)n3O)c1 [Example 50, 6-[3-(Aminomethyl)phenyl]-1,4-dihydroxy-3-phenyl-1,8-naphthyridin-2(1H)-one] | > 4.00 | > 4.30 |
| CNS(=O)(=O)c1cccc(-c2cc(=O)n(O)c3ncccc23)c1 [Example 193, 3-(1-hydroxy-2-oxo-1,2-dihydro-1,8-naphthyridin-4-yl)-N-methylbenzenesulfona-mide] | > 4.00 | > 4.30 |
| CCOC(=O)c1c(O)c2cc(-c3cccc(-c4ccccc4)c3)cnc2n(O)c1=O [Example 64, Ethyl 6-biphenyl-3-yl-1,4-dihydroxy-2-oxo-1,2-dihydro-1,8-naphthyridine-3-carboxylate] | > 4.00 | > 4.30 |
| N#Cc1ccc2c(c1)CN(c1cc(=O)n(O)c3ncccc13)CC2 [Example 120, 2-(1-hydroxy-2-oxo-1,2-dihydro-1,8-naphthyridin-4-yl)-1,2,3,4-tetrahydroisoquinoline-7-carbonitrile] | > 4.00 | > 4.30 |
| O=c1cc(NCc2ccccc2)c2cccnc2n1O [Example 126, 4-(benzylamino)-1-hydroxy-1,8-naphthyridin-2(1H)-one] | > 4.00 | > 4.30 |
| O=C(c1cc(=O)n(O)c2ncccc12)N1CCc2ccccc2C1 [Example 247, 4-(3,4-dihydroisoquinolin-2(1H)-ylcarbonyl)-1-hydroxy-1,8-naphthyridin-2(1H)-one] | > 4.00 | > 4.30 |
